Data: US20170354726A1, “CANCER PEPTIDE VACCINE” (Green Peptide Co., Ltd., priority 2010, published 2017)
Ends that are not written are not given here.

Tests used:
Type in all cases: in vivo, human
[1] = system: CTL in PBMC of HRPC patients, HLA-A24 positive target cells presenting the administered peptide; assay: Measurement of CTL activity (IFN-γ) in PBMC of HRPC patients; settings: for reactivity of CTL (and antibody) to the peptide, in words: HRPC patients; for IFN post average/average no. of times of administration / CTL (IFN) Post Average: prostate cancer; for CTL (IFN) Post Average: patients given this peptide
Procedure: (§1) PBMC was separated from the peripheral blood obtained by blood collection at the start of administration and at the end of each course for lyophilization, and CTL activity was measured using all PBMC by a known method (Hida N, Maeda Y, Katagiri K, Takasu H, Harada M, Itoh K., A simple culture protocol to detect peptide-specific cytotoxic T lymphocyte precursors in circulation. Cancer Immunol Immunotherapy 2002; 51: 219-228 (incorporated herein by reference)) after the end of administration. First, PBMC was cultured in the presence of each administered peptide for 2 weeks, and the PBMC was co-cultured with HLA-A24 positive target cells presenting the administered peptide via HLA molecules. Then, CTL activity was measured by measuring IFN-γ secreted into the culture supernatant by the reaction of CTL in PBMC with the target cells. The co-culture was performed under 4 independent conditions for each peptide; 4 values were obtained for each peptide for each PBMC obtained by each blood collection; and the total of the 4 values was used as a value (pg/mL) of IFN-γ for analysis to be described later.
(§2) For HRPC patients, the average of IFN-γ values or FIU was calculated in the 1 mg administration group (level I), the 3 mg administration group (level II), and the 5 mg administration group (level III) to analyze the relationship between the dose and the immunological response.
(§3) For HRPC patients, the averages of IFN-γ values and FIU obtained from the plasma or PBMC obtained at the end of each course from before administration to the 6th course were calculated in the 1 mg administration group and the group of administration of 3 mg or more to analyze the relationship between the number of times of administration and the immunological response. The “Number of times of administration” in the table and the figure is the total number of times of administration at the end of each course, and the number of times of administration per course is 6.
Since the initial peptide reselection was performed at the end of the 1st course, the averages of measurements after the reselection (values measured at the end of the 2nd course and later) are shown in the table and the figure. The “Number of times of administration” in the table and the figure is the total number of times of administration at the end of each course, and the number of times of administration per course is 6.

[2] = system: antibody to a peptide in the peripheral blood of glioblastoma patients; assay: Antibody to peptide in plasma (FIU, Luminex) of glioblastoma patients; settings: brain tumor, patients given this peptide
Procedure: (§4) An antibody to a peptide in the peripheral blood of patient was measured using a multiplex technology provided by Luminex Corporation by a method as described in Japanese Patent No. 3960614 (incorporated herein by reference) using each of the powdered peptides of SEQ ID NOS: 1 to 14. More specifically, a carrier was prepared in which each peptide was immobilized on the surface of micro beads (Luminex Corporation) after dissolving the powdered peptide in DMSO. Subsequently, plasma (heparin blood) obtained by blood collection from the patient was mixed with the immobilized carrier to react the antibody contained in the plasma with the peptide immobilized on the carrier. Then, the immobilized carrier was recovered after reaction; the antibody in the peripheral blood of the patient, bound to the peptide on the support was fluorescently labeled using a biotinylated anti-human antibody (Vector Corporation) and an avidinylated fluorescent dye (Streptavidin-PE, Invitrogen Corporation); and the fluorescence intensity (FIU) thereof was measured.
(§5) Similarly, for glioblastoma patients, the average of IFN-γ values or FIU was calculated in the 1 mg administration group (level I) and the 3 mg administration group (level II) to analyze the relationship between the dose and the immunological response.
(§6) Similarly, for glioblastoma patients, the averages of IFN-γ values and FIU obtained from the plasma or PBMC obtained at the end of each course from before administration to the 2nd course were calculated in the 1 mg administration group (level I) and the group of administration of 3 mg or more (level II) to analyze the relationship between the number of times of administration and the immunological response. The “Number of times of administration” in the table and the figure is the total number of times of administration at the end of each course, and the number of times of administration per course is 6.

[3] = system: CTL in PBMC of glioblastoma patients, HLA-A24 positive target cells presenting the administered peptide; assay: Measurement of CTL activity (IFN-γ) in PBMC of glioblastoma patients; settings: brain tumor; for CTL (IFN) Post Average: patients given this peptide
Procedure: as §1, §5, §6

[4] = system: antibody to a peptide in the peripheral blood of HRPC patients; assay: Antibody to peptide in plasma (FIU, Luminex) of HRPC patients; settings: prostate cancer, patients given this peptide
Procedure: as §4, with “More” for “An antibody to a peptide in the peripheral blood of patient was measured using a multiplex technology provided by Luminex Corporation by a method as described in Japanese Patent No. 3960614 (incorporated herein by reference) using each of the powdered peptides of SEQ ID NOS: 1 to 14. More”
as §2, §3

Sequence | reactivity of CTL (and antibody) to the peptide, in words [1] | IFN post average/average no. of times of administration [1] | CTL (IFN) Post Average [1] | Ab Post Average (FIU after peptide administration) [2] | IFN post average/average no. of times of administration [3] | CTL (IFN) Post Average [3] | Ab Post Average (FIU after peptide administration) [4]
AYDFLYNYL [GP-113] | low values of CTL activation | 67 | 600 pg/mL | 67 FIU | 357 | 5,139 pg/mL | 207 FIU
DYLRSVLEDF [GP-105] |  | 229 | 5,274 pg/mL | 3,969 FIU | 180 | 2,706 pg/mL | 13,096 FIU
DYSARWNEI [GP-112] | low values of CTL activation | 76 | 459 pg/mL | 1,338 FIU | 92 | 1,308 pg/mL | 53 FIU
DYVREHKDNI [GP-101] | lower in the CTL reactivity than other peptides | 7 | 129 pg/mL |  |  |  | 16,491 FIU
HYRKWIKDTI [GP-109] | lowly increased the CTL activity | 22 | 494 pg/mL |  |  |  | 11,672 FIU
HYTNASDGL [GP-103] | did not increase the reactivity of antibody and CTL | 8 | 100 pg/mL |  |  |  | 22 FIU
LYAWEPSFL [GP-106] |  | 841 | 22,699 pg/mL | 297 FIU | 174 | 3,134 pg/mL | 20,080 FIU
LYCESVHNF [GP-108] |  | 72 | 2,209 pg/mL |  |  |  | 19,039 FIU
NYSVRYRPGL [GP-107] | lowly increased the CTL activity | 27 | 370 pg/mL | 302 FIU | 8 | 151 pg/mL | 2,888 FIU
RYLTQETNKV [GP-111] |  | 207 | 5,576 pg/mL | 241 FIU | 400 | 3,001 pg/mL | 11,125 FIU
TFDYLRSVL [GP-104] |  | 144 | 3,629 pg/mL | 920 FIU | 187 | 2,986 pg/mL | 11,538 FIU
TYSVSFDSL [GP-110] | increased the CTL value | 365 | 2,190 pg/mL |  |  |  | 310 FIU
VYDYNCHVDL [GP-114] |  | 547 | 4,592 pg/mL | 297 FIU | 82 | 821 pg/mL | 10,557 FIU
